In the experiment the target is Calcium-activated potassium channel subunit alpha-1 (Homo sapiens) (UniProt Q12791). Put plainly: Channel opening activity at human BKalpha channel expressed in CHOK1 cells assessed as ionic current amplitude at 30 uM at holding potential of -90 mV by population patch clamp technique relative to untreated control. Format: cell-based. The conditions noted are these: CHO-K1. A general note: Patch clamp records ionic current or voltage across a cell membrane.

The record followed here is ChEMBL document CHEMBL1141715, “Novel BK channel openers containing dehydroabietic acid skeleton: structure-activity relationship for peripheral substituents on ring C” (Bioorg Med Chem Lett, 2008).

Calcium-activated potassium channel subunit alpha-1 (Homo sapiens), sequence (Q12791 whole entry): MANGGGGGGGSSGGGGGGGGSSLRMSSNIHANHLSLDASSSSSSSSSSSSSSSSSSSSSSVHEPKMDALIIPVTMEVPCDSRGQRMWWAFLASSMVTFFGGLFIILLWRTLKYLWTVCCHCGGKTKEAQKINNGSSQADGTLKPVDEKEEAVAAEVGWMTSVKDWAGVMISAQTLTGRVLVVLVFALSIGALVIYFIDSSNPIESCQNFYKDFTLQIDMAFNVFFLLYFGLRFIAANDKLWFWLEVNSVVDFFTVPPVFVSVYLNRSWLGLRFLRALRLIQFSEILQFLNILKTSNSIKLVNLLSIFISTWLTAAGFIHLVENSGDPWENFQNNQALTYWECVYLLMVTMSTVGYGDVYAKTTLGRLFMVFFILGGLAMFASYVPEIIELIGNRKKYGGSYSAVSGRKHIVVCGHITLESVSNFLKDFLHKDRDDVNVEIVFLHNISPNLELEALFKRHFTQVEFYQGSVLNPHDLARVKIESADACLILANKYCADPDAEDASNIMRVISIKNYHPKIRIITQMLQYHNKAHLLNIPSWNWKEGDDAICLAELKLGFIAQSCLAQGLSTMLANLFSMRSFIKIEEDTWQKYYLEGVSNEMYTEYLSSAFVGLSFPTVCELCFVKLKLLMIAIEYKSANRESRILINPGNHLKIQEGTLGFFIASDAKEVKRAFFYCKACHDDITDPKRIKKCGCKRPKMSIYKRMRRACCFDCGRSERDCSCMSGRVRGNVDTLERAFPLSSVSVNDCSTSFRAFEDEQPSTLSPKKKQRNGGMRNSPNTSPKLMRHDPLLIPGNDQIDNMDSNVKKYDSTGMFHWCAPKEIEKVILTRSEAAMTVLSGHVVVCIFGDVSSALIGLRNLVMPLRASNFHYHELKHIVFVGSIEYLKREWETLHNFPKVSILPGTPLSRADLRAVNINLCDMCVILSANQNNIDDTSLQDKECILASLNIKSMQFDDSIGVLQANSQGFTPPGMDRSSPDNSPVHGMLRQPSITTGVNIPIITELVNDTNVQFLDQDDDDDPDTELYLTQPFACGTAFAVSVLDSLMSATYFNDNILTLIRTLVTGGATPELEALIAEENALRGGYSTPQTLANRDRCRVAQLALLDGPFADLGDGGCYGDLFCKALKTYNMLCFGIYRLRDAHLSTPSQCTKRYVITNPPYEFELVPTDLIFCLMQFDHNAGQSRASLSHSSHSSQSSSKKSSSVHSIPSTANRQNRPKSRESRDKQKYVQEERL

As for `CC(C)c1cc2c(cc1NC(=O)Nc1cc(C(F)(F)F)cc(C(F)(F)F)c1)[C@@]1(C)CCC[C@@](C)(C(=O)O)[C@@H]1CC2`, the Activity worked out at 132%. For the compound `COc1ccccc1C(=O)Nc1cc2c(cc1C(C)C)CC[C@H]1[C@](C)(C(=O)O)CCC[C@]21C`, the Activity worked out at 86.5%.

`CC(C)c1c([N+](=O)[O-])cc2c(c1[N+](=O)[O-])CC[C@H]1[C@](C)(C(=O)O)CCC[C@]21C`: the Activity was determined as 200%. For the compound `CC(C)c1cc2c(cc1NC(=O)c1cccc(C(F)(F)F)c1)[C@@]1(C)CCC[C@@](C)(C(=O)O)[C@@H]1CC2`, the Activity turned out to be 92.5%.

`CCNC(=O)Nc1cc2c(cc1C(C)C)CC[C@H]1[C@](C)(C(=O)O)CCC[C@]21C`: the Activity amounted to 89.9%. The value for `CC(C)C(=O)Nc1cc2c(cc1C(C)C)CC[C@H]1[C@](C)(C(=O)O)CCC[C@]21C` was 130%; that for `CC(C)c1cc2c(cc1NC(=S)Nc1cc(C(F)(F)F)cc(C(F)(F)F)c1)[C@@]1(C)CCC[C@@](C)(C(=O)O)[C@@H]1CC2` was 240%.

For `CC(C)c1cc2c(cc1NC(=O)Nc1cccc(Cl)c1)[C@@]1(C)CCC[C@@](C)(C(=O)O)[C@@H]1CC2`, the Activity was determined as 136%. The value for `CC(C)c1cc2c(cc1NC(=O)Nc1ccc(F)c(F)c1)[C@@]1(C)CCC[C@@](C)(C(=O)O)[C@@H]1CC2` was 139%; that for `CC(C)c1cc2c(cc1NC(=O)Nc1ccccc1)[C@@]1(C)CCC[C@@](C)(C(=O)O)[C@@H]1CC2` was 72.7%. Turning to `CC(C)c1c(Cl)cc2c(c1Cl)CC[C@H]1[C@](C)(C(=O)O)CCC[C@]21C`, the Activity was found to be 180%. For `CC(=O)Nc1cc2c(cc1C(C)C)CC[C@H]1[C@](C)(C(=O)O)CCC[C@]21C`, the Activity is 96.1%. The value for `COc1ccc(Cl)cc1NC(=O)Nc1cc2c(cc1C(C)C)CC[C@H]1[C@](C)(C(=O)O)CCC[C@]21C` was 94.4%. As for `COc1cc2c(cc1C(C)C)CC[C@H]1[C@](C)(C(=O)O)CCC[C@]21C`, the figure is 85.9%; as for `CC(C)c1cc2c(cc1NC(=O)Nc1ccc(C(F)(F)F)cc1)[C@@]1(C)CCC[C@@](C)(C(=O)O)[C@@H]1CC2`, 138%; as for `CC(C)c1cc2c(cc1NC(=O)Cc1ccccc1)[C@@]1(C)CCC[C@@](C)(C(=O)O)[C@@H]1CC2`, 90.9%. As to `CC(C)c1cc2c(cc1N)[C@@]1(C)CCC[C@@](C)(C(=O)O)[C@@H]1CC2`, the Activity amounted to 88.9%. With `CC(C)c1cc2c(cc1NC(=O)C1CCCCC1)[C@@]1(C)CCC[C@@](C)(C(=O)O)[C@@H]1CC2`, the Activity was 95.9%.

In the case of `CC(C)c1cc2c(cc1OCc1ccc(Cl)cc1)[C@@]1(C)CCC[C@@](C)(C(=O)O)[C@@H]1CC2`, the Activity turned out to be 91.6%. Consider `CC(C)Oc1cc2c(cc1C(C)C)CC[C@H]1[C@](C)(C(=O)O)CCC[C@]21C`, for which the Activity was 125%. As to `CC(C)c1ccc2c(c1N)CC[C@H]1[C@](C)(C(=O)O)CCC[C@]21C`, the Activity was 88.2%.

Regarding `CC(C)c1cc2c(cc1OCCCc1ccccc1)[C@@]1(C)CCC[C@@](C)(C(=O)O)[C@@H]1CC2`, the Activity worked out at 93.2%. As for `CC(C)c1cc2c(cc1OCc1ccc3ccccc3c1)[C@@]1(C)CCC[C@@](C)(C(=O)O)[C@@H]1CC2`, the figure is 83.7%. In the case of `CCCCCCOc1cc2c(cc1C(C)C)CC[C@H]1[C@](C)(C(=O)O)CCC[C@]21C`, the Activity turned out to be 78.7%.

For `CC(C)c1cc2c(cc1NC(=S)Nc1cccc(C(F)(F)F)c1)[C@@]1(C)CCC[C@@](C)(C(=O)O)[C@@H]1CC2`, the Activity stood at 143%. Turning to `CC(C)c1cc2c(cc1O)[C@@]1(C)CCC[C@@](C)(C(=O)O)[C@@H]1CC2`, the Activity stood at 83%. Consider `CC(C)c1c(N)cc2c(c1N)CC[C@H]1[C@](C)(C(=O)O)CCC[C@]21C`, for which the Activity stood at 110%.

For `CC(C)c1cc2c(cc1NC(=O)c1ccccc1C(F)(F)F)[C@@]1(C)CCC[C@@](C)(C(=O)O)[C@@H]1CC2`, the Activity came out at 59.4%. Take `CC(C)c1cc2c(cc1OCc1ccccc1)[C@@]1(C)CCC[C@@](C)(C(=O)O)[C@@H]1CC2`: the Activity was 89.5%. `CCCC(=O)Nc1cc2c(cc1C(C)C)CC[C@H]1[C@](C)(C(=O)O)CCC[C@]21C`: the Activity is 92.4%. The value for `CC(C)c1cc2c(cc1NC(=O)Nc1ccc(Cl)c(C(F)(F)F)c1)[C@@]1(C)CCC[C@@](C)(C(=O)O)[C@@H]1CC2` was 168%; that for `CCC(=O)Nc1cc2c(cc1C(C)C)CC[C@H]1[C@](C)(C(=O)O)CCC[C@]21C` was 90.2%. On to `CCCCCCCCCOc1cc2c(cc1C(C)C)CC[C@H]1[C@](C)(C(=O)O)CCC[C@]21C`, for which the Activity worked out at 81.8%. The value for `CC(C)c1cc2c(cc1NC(=O)c1ccccc1)[C@@]1(C)CCC[C@@](C)(C(=O)O)[C@@H]1CC2` was 90%.

Consider `COc1ccc(C(=O)Nc2cc3c(cc2C(C)C)CC[C@H]2[C@](C)(C(=O)O)CCC[C@]32C)cc1`, for which the Activity was found to be 94.1%. In the case of `CCCCCCCCCCCC(=O)Nc1cc2c(cc1C(C)C)CC[C@H]1[C@](C)(C(=O)O)CCC[C@]21C`, the Activity is 103%.

In the case of `CC(C)c1cc2c(cc1NC(=O)c1ccc(C(F)(F)F)cc1)[C@@]1(C)CCC[C@@](C)(C(=O)O)[C@@H]1CC2`, the Activity turned out to be 128%. On to `CC(C)c1cc2c(cc1NC(=O)c1ccc(F)cc1)[C@@]1(C)CCC[C@@](C)(C(=O)O)[C@@H]1CC2`, for which the Activity amounted to 83.4%. The value for `CC(C)c1cc2c(cc1NC(=O)c1cc(C(F)(F)F)cc(C(F)(F)F)c1)[C@@]1(C)CCC[C@@](C)(C(=O)O)[C@@H]1CC2` was 81.8%. On to `CC(C)c1cc2c(cc1NC(=O)Nc1cc(C(F)(F)F)ccc1Cl)[C@@]1(C)CCC[C@@](C)(C(=O)O)[C@@H]1CC2`, for which the Activity came out at 128%. As for `CCCOc1cc2c(cc1C(C)C)CC[C@H]1[C@](C)(C(=O)O)CCC[C@]21C`, the Activity was found to be 118%. For the compound `CC(C)c1cc2c(cc1NC(=O)Nc1cc(Cl)cc(Cl)c1)[C@@]1(C)CCC[C@@](C)(C(=O)O)[C@@H]1CC2`, the Activity was determined as 151%.

`CC(C)c1cc2c(cc1NC(=O)Nc1cccc(C(F)(F)F)c1)[C@@]1(C)CCC[C@@](C)(C(=O)O)[C@@H]1CC2`: the Activity is 99.9%. Turning to `CC(C)c1cc2c(cc1NC(=O)CN1CCCCC1)[C@@]1(C)CCC[C@@](C)(C(=O)O)[C@@H]1CC2`, the Activity was 107%. As for `CC(C)c1cc2c(cc1NC(=O)c1ccc(Cl)cc1)[C@@]1(C)CCC[C@@](C)(C(=O)O)[C@@H]1CC2`, the Activity worked out at 108%.

With `CC(C)c1cc2c(cc1NC(=O)Nc1ccc(F)c(Cl)c1)[C@@]1(C)CCC[C@@](C)(C(=O)O)[C@@H]1CC2`, the Activity amounted to 156%. Regarding `CC(C)c1cc2c(cc1NC(=O)Nc1ccccc1C(F)(F)F)[C@@]1(C)CCC[C@@](C)(C(=O)O)[C@@H]1CC2`, the Activity is 114%. As for `COc1ccc(NC(=O)Nc2cc3c(cc2C(C)C)CC[C@H]2[C@](C)(C(=O)O)CCC[C@]32C)cc1`, the figure is 107%. On to `CC(C)c1cc2c(cc1NC(=O)C1CC1)[C@@]1(C)CCC[C@@](C)(C(=O)O)[C@@H]1CC2`, for which the Activity turned out to be 91.6%.
